{
  "source": "patent US20240358692A1",
  "about": "“TREATMENT OF SCLERODERMA” (Aisa Pharma, Inc., priority 2023, published 2024)",
  "tested_on": "participants with SSc-RP",
  "assay": "SHAQ - Visual Analog Scale - Finger Ulcers",
  "type": "in vivo, human",
  "details": "for SHAQ Visual Analogue Scale - Finger Ulcers, Change from Baseline, Mean (SD) / SHAQ Visual Analogue Scale - Finger Ulcers, Change from Baseline, Median / SHAQ Visual Analogue Scale - Finger Ulcers, In-Clinic Visit (Day 12), Mean (SD) / SHAQ Visual Analogue Scale - Finger Ulcers, In-Clinic Visit (Day 12), Median / SHAQ Visual Analogue Scale - Finger Ulcers, Percent Change from Baseline, Mean (SD) / SHAQ Visual Analogue Scale - Finger Ulcers, Percent Change from Baseline, Median: Day 12; for % improvement in VAS Digital Ulcers: SHAQ, mITT Part A",
  "text": "The standard, validated, patient reported outcome measures tool for SSc patients, the Scleroderma Health Assessment Questionnaire (SHAQ), will be used to assess the participant qualify of life. Details are attached in the Appendix. The participant quality of life will be scored, and a disability index calculated for each questionnaire completed by the patient at Screening and each in-clinic visit. The absolute change in participant quality of life from baseline to the end of each dosing period will be calculated similar to frequency data as before.\nThe standard, validated, patient reported outcome measures tool for SSc patients, the SHAQ, was collected at the time points specified in the study schedules (FIG. 2 and FIGS. 4A and 4B) to assess the participant's quality of life. The SHAQ included a Raynaud's VAS that will also be reported separately.",
  "key": {"[1]": {"details": "Any Cilnidipine (N = 17), PP Population, Part A"}, "[2]": {"details": "Cilnidipine 10 mg (N = 4), PP Population, Part A"}, "[3]": {"details": "Cilnidipine 20 mg (N = 4), PP Population, Part A"}, "[4]": {"details": "Pooled Cilnidipine 10 mg and Cilnidipine 10 mg + Tadalafil 5 mg, PP, Part A"}, "[5]": {"details": "Pooled Cilnidipine 20 mg and Cilnidipine 20 mg + Tadalafil 5 mg, PP, Part A"}, "[6]": {"details": "Pooled Cilnidipine (N = 8), PP Population, Part A"}},
  "data": [
    {"smiles": "COCCOC(=O)C1=C(C)NC(C)=C(C(=O)OC/C=C/c2ccccc2)C1c1cccc([N+](=O)[O-])c1", "note": "(centres unmarked) [Cilnidipine]", "values": [
      {"measurement": "SHAQ Visual Analogue Scale - Finger Ulcers, Change from Baseline, Mean (SD)", "setting": "[1]", "value": "−0.540 (1.0568)"},
      {"measurement": "SHAQ Visual Analogue Scale - Finger Ulcers, Change from Baseline, Median", "setting": "[1]", "value": "−0.100"},
      {"measurement": "SHAQ Visual Analogue Scale - Finger Ulcers, In-Clinic Visit (Day 12), Mean (SD)", "setting": "[1]", "value": "0.731 (1.4351)"},
      {"measurement": "SHAQ Visual Analogue Scale - Finger Ulcers, In-Clinic Visit (Day 12), Median", "setting": "[1]", "value": 0.000},
      {"measurement": "SHAQ Visual Analogue Scale - Finger Ulcers, Percent Change from Baseline, Mean (SD)", "setting": "[1]", "value": "−33.91 (69.617) %"},
      {"measurement": "SHAQ Visual Analogue Scale - Finger Ulcers, Percent Change from Baseline, Median", "setting": "[1]", "value": "−36.11", "unit": "%"},
      {"measurement": "SHAQ Visual Analogue Scale - Finger Ulcers, Change from Baseline, Median", "setting": "[2]", "value": "−0.350"},
      {"measurement": "SHAQ Visual Analogue Scale - Finger Ulcers, In-Clinic Visit (Day 12), Median", "setting": "[2]", "value": 0.000},
      {"measurement": "SHAQ Visual Analogue Scale - Finger Ulcers, In-Clinic Visit (Day 12), Median", "setting": "Cilnidipine 10 mg, PP Population Part A, sensitivity analysis", "value": 0.000},
      {"measurement": "SHAQ Visual Analogue Scale - Finger Ulcers, Change from Baseline, Median", "setting": "[3]", "value": 0.000},
      {"measurement": "SHAQ Visual Analogue Scale - Finger Ulcers, In-Clinic Visit (Day 12), Median", "setting": "[3]", "value": 0.350},
      {"measurement": "% improvement in VAS Digital Ulcers", "setting": "Cilnidipine 20 mg (n = 3)", "value": 35, "unit": "%"},
      {"measurement": "SHAQ Burden of Finger Ulcers, mean % change", "setting": "Cilnidipine 20 mg (n = 3), minus = improvement, Table A*", "value": "−17", "unit": "%"},
      {"measurement": "SHAQ Visual Analogue Scale - Finger Ulcers, In-Clinic Visit (Day 12), Mean", "setting": "Pooled Cilnidipine 10 mg and Cilnidipine 10 mg + Tadalafil 5 mg (N = 9), Modified ITT Population - Part A", "value": 0.389},
      {"measurement": "SHAQ VAS Finger Ulcers, Change from Baseline, Max", "setting": "[4]", "value": 0.00},
      {"measurement": "SHAQ VAS Finger Ulcers, Change from Baseline, Min", "setting": "[4]", "value": "−1.00,"},
      {"measurement": "SHAQ VAS Finger Ulcers, Change from Baseline, Q1", "setting": "[4]", "value": "−0.500,"},
      {"measurement": "SHAQ VAS Finger Ulcers, Change from Baseline, Q3", "setting": "[4]", "value": 0.000},
      {"measurement": "SHAQ VAS Finger Ulcers, Day 12, Max", "setting": "[4]", "value": 1.50},
      {"measurement": "SHAQ VAS Finger Ulcers, Day 12, Min", "setting": "[4]", "value": "0.00,"},
      {"measurement": "SHAQ VAS Finger Ulcers, Day 12, Q1", "setting": "[4]", "value": "0.000,"},
      {"measurement": "SHAQ VAS Finger Ulcers, Day 12, Q3", "setting": "[4]", "value": 0.700},
      {"measurement": "SHAQ VAS Finger Ulcers, Percent Change from Baseline, Max", "setting": "[4]", "value": 0.0},
      {"measurement": "SHAQ VAS Finger Ulcers, Percent Change from Baseline, Min", "setting": "[4]", "value": "−100.0,"},
      {"measurement": "SHAQ VAS Finger Ulcers, Percent Change from Baseline, Q1", "setting": "[4]", "value": "−100.00,"},
      {"measurement": "SHAQ VAS Finger Ulcers, Percent Change from Baseline, Q3", "setting": "[4]", "value": "−12.50"},
      {"measurement": "SHAQ VAS Finger Ulcers, Change from Baseline, Max", "setting": "[5]", "value": 0.40},
      {"measurement": "SHAQ VAS Finger Ulcers, Change from Baseline, Min", "setting": "[5]", "value": "−3.20,"},
      {"measurement": "SHAQ VAS Finger Ulcers, Change from Baseline, Q1", "setting": "[5]", "value": "−2.800,"},
      {"measurement": "SHAQ VAS Finger Ulcers, Change from Baseline, Q3", "setting": "[5]", "value": 0.000},
      {"measurement": "SHAQ VAS Finger Ulcers, Day 12, Max", "setting": "[5]", "value": 5.60},
      {"measurement": "SHAQ VAS Finger Ulcers, Day 12, Median", "setting": "[5]", "value": 0.000},
      {"measurement": "SHAQ VAS Finger Ulcers, Day 12, Min", "setting": "[5]", "value": "0.00,"},
      {"measurement": "SHAQ VAS Finger Ulcers, Day 12, Q1", "setting": "[5]", "value": "0.000,"},
      {"measurement": "SHAQ VAS Finger Ulcers, Day 12, Q3", "setting": "[5]", "value": 1.900},
      {"measurement": "SHAQ VAS Finger Ulcers, Percent Change from Baseline, Max", "setting": "[5]", "value": 133.3},
      {"measurement": "SHAQ VAS Finger Ulcers, Percent Change from Baseline, Min", "setting": "[5]", "value": "−100.0,"},
      {"measurement": "SHAQ VAS Finger Ulcers, Percent Change from Baseline, Q1", "setting": "[5]", "value": "−81.37,"},
      {"measurement": "SHAQ VAS Finger Ulcers, Percent Change from Baseline, Q3", "setting": "[5]", "value": 50.00},
      {"measurement": "SHAQ Visual Analogue Scale - Finger Ulcers, Change from Baseline, Mean (SD)", "setting": "[6]", "value": "−0.643 (1.2246)"},
      {"measurement": "SHAQ Visual Analogue Scale - Finger Ulcers, Change from Baseline, Median", "setting": "[6]", "value": 0.000},
      {"measurement": "SHAQ Visual Analogue Scale - Finger Ulcers, In-Clinic Visit (Day 12), Mean (SD)", "setting": "[6]", "value": "0.463 (0.7170)"},
      {"measurement": "SHAQ Visual Analogue Scale - Finger Ulcers, In-Clinic Visit (Day 12), Median", "setting": "[6]", "value": 0.000},
      {"measurement": "SHAQ Visual Analogue Scale - Finger Ulcers, Percent Change from Baseline, Mean (SD)", "setting": "[6]", "value": "−17.08 (103.378) %"},
      {"measurement": "SHAQ Visual Analogue Scale - Finger Ulcers, Percent Change from Baseline, Median", "setting": "[6]", "value": "−50.82", "unit": "%"},
      {"measurement": "% improvement in VAS Digital Ulcers", "setting": "Pooled Cilnidipine (n = 7)", "value": 19, "unit": "%"},
      {"measurement": "SHAQ VAS Finger Ulcers, Change from Baseline, Max", "setting": "Pooled Cilnidipine, PP, Part A", "value": 0.40},
      {"measurement": "SHAQ VAS Finger Ulcers, Change from Baseline, Min", "setting": "Pooled Cilnidipine, PP, Part A", "value": "−3.20,"},
      {"measurement": "SHAQ VAS Finger Ulcers, Change from Baseline, Q1", "setting": "Pooled Cilnidipine, PP, Part A", "value": "−1.000,"},
      {"measurement": "SHAQ VAS Finger Ulcers, Change from Baseline, Q3", "setting": "Pooled Cilnidipine, PP, Part A", "value": 0.000},
      {"measurement": "SHAQ VAS Finger Ulcers, Day 12, Max", "setting": "Pooled Cilnidipine, PP, Part A", "value": 1.90},
      {"measurement": "SHAQ VAS Finger Ulcers, Day 12, Min", "setting": "Pooled Cilnidipine, PP, Part A", "value": "0.00,"},
      {"measurement": "SHAQ VAS Finger Ulcers, Day 12, Q1", "setting": "Pooled Cilnidipine, PP, Part A", "value": "0.000,"},
      {"measurement": "SHAQ VAS Finger Ulcers, Day 12, Q3", "setting": "Pooled Cilnidipine, PP, Part A", "value": 0.900},
      {"measurement": "SHAQ VAS Finger Ulcers, Percent Change from Baseline, Max", "setting": "Pooled Cilnidipine, PP, Part A", "value": 133.3},
      {"measurement": "SHAQ VAS Finger Ulcers, Percent Change from Baseline, Min", "setting": "Pooled Cilnidipine, PP, Part A", "value": "−100.0,"}
    ]}
  ]
}
